Source: ChEMBL document CHEMBL4699474, “Dimeric Tetrahydroanthracene Regioisomers and Their Monomeric Precursor Produced by Streptomyces fumigatiscleroticus HDN10255” (J Nat Prod, 2020)
Where a name gives a salt, the structure may show the parent alone.

Tests used:
Type in all cases: functional, cell-based
K562 = assay: Cytotoxicity against human K562 cells assessed as reduction in cell viability after 48 hrs by MTT assay; settings: K562, 48 h
HCT-116 = assay: Cytotoxicity against human HCT-116 cells assessed as reduction in cell viability after 48 hrs by SRB assay; settings: HCT-116, 48 h
HeLa = assay: Cytotoxicity against human HeLa cells assessed as reduction in cell viability after 48 hrs by SRB assay
HL-60 = assay: Cytotoxicity against human HL-60 cells assessed as reduction in cell viability after 48 hrs by MTT assay; settings: HL-60, 48 h

`CC(=O)[C@H]1c2cc3c(-c4ccc(O)c5c(O)c6c(cc45)[C@H](C(C)=O)[C@@](C)(O)CC6=O)ccc(O)c3c(O)c2C(=O)C[C@]1(C)O` was tested, and the IC50 (K562) was over 10 µM, the IC50 (HCT-116) was over 10 µM and the IC50 (HeLa) was over 10 µM. For the same compound, the IC50 (HL-60) was over 10 µM.

In the case of `CC(=O)[C@H]1c2cc3ccc(-c4c5c(c(O)c6c(O)cccc46)C(=O)C[C@](C)(O)[C@H]5C(C)=O)c(O)c3c(O)c2C(=O)C[C@]1(C)O`, the IC50 (K562) is reported as over 10 µM, the IC50 (HCT-116) is reported as over 10 µM and the IC50 (HeLa) is reported as over 10 µM. It also gave an IC50 (HL-60) of over 10 µM.

For `CC(=O)[C@H]1c2c(c(O)c3c(O)cccc3c2-c2c3c(c(O)c4c(O)cccc24)C(=O)C[C@](C)(O)[C@H]3C(C)=O)C(=O)C[C@]1(C)O`, the IC50 (K562) was 5.1 µM, the IC50 (HCT-116) was over 10 µM and the IC50 (HeLa) was 1.8 µM. For the same compound, the IC50 (HL-60) was over 10 µM.

With `CC(=O)[C@H]1c2cc3cccc(O)c3c(O)c2C(=O)C[C@]1(C)O` the IC50 (K562) was over 10 µM, the IC50 (HCT-116) was over 10 µM and the IC50 (HeLa) was over 10 µM. The IC50 (HL-60) was over 10 µM.

`CC(=O)[C@H]1c2cc3c(-c4c5c(c(O)c6c(O)cccc46)C(=O)C[C@](C)(O)[C@H]5C(C)=O)ccc(O)c3c(O)c2C(=O)C[C@]1(C)O` gave an IC50 (K562) of 10 µM, an IC50 (HCT-116) of over 10 µM and an IC50 (HeLa) of 5.1 µM. The IC50 (HL-60) was 6.2 µM.

`COc1cccc2c1C(=O)c1c(O)c3c(c(O)c1C2=O)C[C@@](O)(C(=O)CO)C[C@@H]3O[C@H]1C[C@H](N)[C@H](O)[C@H](C)O1` [DOXORUBICIN HYDROCHLORIDE] gave an IC50 (K562) of 0.2 µM.
